Data on 6 compounds can be found in article PMC8724172, “The effect of potent CYP2D6 inhibition on the pharmacokinetics and safety of deutetrabenazine in healthy volunteers” (European Journal of Clinical Pharmacology, 2021).

Series [1] can be described thus: Open-label sequential drug-drug interaction study: plasma pharmacokinetics of deutetrabenazine and its metabolites without and with steady-state paroxetine. On the set-up: AUC0−t lower by a factor in presence of paroxetine / Cmax lower by a factor in presence of paroxetine: unit not given beside the values. The note with it: for % Ratio of LS means (90% CI) (day 11)/(day 1), AUC0−t / % Ratio of LS means (90% CI) (day 11)/(day 1), AUC0−∞ / % Ratio of LS means (90% CI) (day 11)/(day 1), Cmax: deutetrabenazine + paroxetine vs deutetrabenazine alone. The source says: This was an open-label sequential drug-drug interaction study in 24 healthy adult subjects who were CYP2D6 extensive metabolizers (EM) or CYP2D6 intermediate metabolizers (IM); Supplemental Table S1 provides the genotypes and phenotypes of the subjects.
Subjects checked into the clinic on day 1 and were confined through day 14. […] Those who met inclusion/exclusion criteria received a single dose of deutetrabenazine on day 1 followed by a 72-h washout. Subjects then received paroxetine on days 4 to 12 to achieve steady-state plasma concentrations of paroxetine by day 11. On day 11, another single dose of deutetrabenazine was administered. Triplicate 12-lead digital electrocardiograms (ECGs) were collected predose and for 10 h following deutetrabenazine dosing on day 1, and for 10 h on day 11, following paroxetine administration on day 10. Blood samples for measurement of plasma concentrations of deutetrabenazine and its metabolites were obtained on days 1 and 11 (predose, 1, 2, 2.5, 3, 3.5, 4, 4.5, 5, 6, 7, 8, 10, 12, and 16 h), days 2 and 12, at 24 and 36 h, days 3 and 13, at 48 and 60 h and days 4 and 14, at 72 h. Paroxetine trough levels were obtained pre-dose on days 9, 10, 11, and 12, and on day 13 at 24 h post the final paroxetine dose on day 12. Blood and urine samples were collected for clinical laboratory testing (hematology, serum chemistries, and urinalysis) at admission and after at least 10 h fasting and at study completion on day 14 or upon early withdrawal.
All participants received the following treatments, deutetrabenazine 22.5-mg oral dose as one 15-mg tablet + one 7.5-mg tablet on days 1 and 11 and one paroxetine 20 mg (Cadila Healthcare Ltd.) oral tablet on days 4 through 12. The deutetrabenazine 22.5-mg dose was administered with 237 mL of water in the morning approximately 30 min after a standardized breakfast meal with moderate fat content (35%). No food was allowed for at least 4 h postdose, and subjects were asked to remain upright for at least 4 h postdose, unless medically necessary.
Paroxetine 20 mg was administered in the morning with 237 mL water for 9 days (days 4 to 12) to ensure steady-state levels. On days 4 to 10 and 12, the paroxetine dose was administered in a fed state 30 min after breakfast. On day 11, as paroxetine can be administered without regard to food, subjects took the paroxetine dose under fasting conditions (at least 1 h prior to breakfast and 1.5 h prior to deutetrabenazine administration) following an overnight fast of at least 10 h. Subjects were asked to remain upright for at least 1 h after the paroxetine dose, unless medically necessary.
Validated liquid chromatography/tandem mass spectrometry methods were applied to assess plasma concentrations of paroxetine, deutetrabenazine, α- and β-HTBZ metabolites, and the O-desmethyl metabolites of α- and β-HTBZ. This was performed on a Sciex API 4000 instrument, equipped with a Turbo Ion Spray ion source operated in the positive ion mode and interfaced to a Shimadzu HPLC system fitted with a Waters XBridge C18 reverse phase column (3.5 µm; 50 × 2.1 mm) for paroxetine, deutetrabenazine, α-HTBZ and β-HTBZ or a Phenomenex Kinetex column (2.6 µm; 100 × 2.1 mm) for the O-desmethyl metabolites. The validated assay ranges were as follows: paroxetine 0.500 to 50.0 ng/mL, deutetrabenazine 0.100 to 10.0 ng/mL, deuterated α- and β-HTBZ 0.500 to 100 ng/mL, and 9-O- and 10-O-desmethyl metabolites of α-HTBZ and β-HTBZ 0.5 to 50.0 ng/mL. The methods were developed and validated by CPR Pharma Services, Pty, Ltd Australia, as described earlier.
Plasma concentrations, below the limit of quantitation (BLQ) of the assay, were designated a value of zero for initial and time points occurring at the end of the profile. For sampling time points between two quantifiable concentrations, plasma concentrations BLQ followed by a measurable concentration were set to the limit of quantitation of the assay.

Series [2] in a line: Safety assessments (adverse events, ECG, C-SSRS) in the drug-drug interaction study. The procedure: Subjects checked into the clinic on day 1 and were confined through day 14. […] Subjects then received paroxetine on days 4 to 12 to achieve steady-state plasma concentrations of paroxetine by day 11. On day 11, another single dose of deutetrabenazine was administered. Triplicate 12-lead digital electrocardiograms (ECGs) were collected predose and for 10 h following deutetrabenazine dosing on day 1, and for 10 h on day 11, following paroxetine administration on day 10. […] Blood and urine samples were collected for clinical laboratory testing (hematology, serum chemistries, and urinalysis) at admission and after at least 10 h fasting and at study completion on day 14 or upon early withdrawal.

For series [3] the following is noted: cited from earlier work.
Setting [4] is: adverse events by treatment period, 24 subjects dosed.
Where [5] appears, read: Subjects with EM phenotype (n = 15).
Setting [6] is: Subjects with IM phenotype (n = 8).
Setting [7] is: population of 15 EM and 8 IM, deutetrabenazine 22.5 mg, steady-state paroxetine 20 mg daily vs alone.

Regarding `Fc1ccc([C@@H]2CCNC[C@H]2COc2ccc3c(c2)OCO3)cc1` [Paroxetine, reference compound], the “Steady-state exposure (mean trough plasma concentrations, visual inspection)” value in series [1] (paroxetine 20 mg oral daily on days 4–12) is listed as “achieved on day 10”. For the same compound, in series [2] (setting [4]), the Back pain is recorded as 1 (4%) n (%), the Chest discomfort was 1 (4%) n (%), the Decreased appetite is 3 (13%) n (%) and the Dizziness was 1 (4%) n (%). For the same compound, in series [2] (setting [4]), the Feeling abnormal is on record as 1 (4%) n (%); the Feeling hot is 1 (4%) n (%); the “Gastrointestinal Disorders” value was 5 (21%) n (%); the “General Disorders and Administration Site Conditions” value is 5 (21%) n (%). For the same compound, in series [2] (setting [4]), the Gingival pain was 1 (4%) n (%); the Headache was 5 (21%) n (%); the Hypoaethesia oral is 1 (4%) n (%); the “Infections and Infestations” value was 1 (4%) n (%). Also, in series [2] (setting [4]), the Local swelling is recorded as 1 (4%) n (%); the “Metabolism and Nutritional disorders” value was 3 (13%) n (%); the Muscle tightness is listed as 1 (4%) n (%); the “Nervous System Disorders” value was 7 (29%) n (%). Besides, in series [2] (setting [4]), the Paraesthesia oral is recorded as 1 (4%) n (%), the “Sensation of foreign body” value is given as 1 (4%) n (%), the Sensation of heaviness is listed as 0 (0%) n (%) and the “Viral Infections” value is recorded as 1 (4%) n (%). Further, in series [2] (most common AE, reported 8 times by 7 subjects overall), the “Headache, subjects reporting” value worked out at 5 subjects.

In the case of `COc1cc2c(cc1O)CCN1C[C@@H](CC(C)C)[C@@H](O)C[C@H]21` [9-O-desmethyl β-HTBZ], in series [1] (human, in vivo), the Cmax is listed as 4.5 (20) ng/mL. In series [1] (human, in vivo, im), the AUC0-t is 105 (33) ng × h/mL, the Cmax was 4.2 (45) ng/mL, the Tmax is reported as 7.0 (4.0–24.0) h and the t1/2 is on record as 16.8 (13) (n = 7) h. Moreover, the Cmax in series [1] (human, in vivo, po, 22.5 mg) is listed as 4.4 (29) ng/mL. Further, in series [1] (in vivo), the “AUC0−t lower by a factor in presence of paroxetine” value was found to be 0.7 and the “Cmax lower by a factor in presence of paroxetine” value came to 0.4.

With `COc1cc2c(cc1O)[C@H]1C[C@H](O)[C@H](CC(C)C)CN1CC2` [10-O-desmethyl β-HTBZ], the “Quantifiability of plasma concentrations” value in series [1] (in vivo) is “appeared transiently in some subjects”.

For the compound `COc1cc2c(cc1O)CCN1C[C@@H](CC(C)C)[C@H](O)C[C@H]21` [9-O-desmethyl α-HTBZ], the Cmax in series [1] (human, in vivo) is reported as 1.4 (18) ng/mL. For the same compound, in series [1] (human, in vivo, im), the AUC0-t is 13.8 (65) ng × h/mL, the Cmax is on record as 1.2 (45) ng/mL and the Tmax is 5.5 (3.5–12.0) h. The Cmax in series [1] (human, in vivo, po, 22.5 mg) was 1.3 (28) ng/mL. In series [1] (in vivo), the “AUC0−t lower by a factor in presence of paroxetine” value is listed as 0.3 and the “Cmax lower by a factor in presence of paroxetine” value amounted to 0.4.

For `COc1cc2c(cc1OC)[C@H]1C[C@H](O)[C@H](CC(C)C)CN1CC2` [β-HTBZ], in series [1] (All subjects (n = 23)), the “% Ratio of LS means (90% CI) (day 11)/(day 1), AUC0−t” value (“% Ratio of LS means (90% CI) … AUC0−t” for short) is 484.7 (355.2–661.5) %; the “% Ratio of LS means (90% CI) (day 11)/(day 1), AUC0−∞” value (from here on “% Ratio of LS means (90% CI) … AUC0−∞”) is 520.6 (388.9–697.0) %; the “% Ratio of LS means (90% CI) (day 11)/(day 1), Cmax” value (from here on “% Ratio of LS means (90% CI) … Cmax”) was 154.3 (126.0–189.0) %. Also, in series [1] (setting [5]), the “% Ratio of LS means (90% CI) … AUC0−t” value is 641.3 (537.3–765.4) %; the “% Ratio of LS means (90% CI) … AUC0−∞” value is listed as 649.9 (549.6–768.5) %; the “% Ratio of LS means (90% CI) … Cmax” value is listed as 216.4 (185.0–253.2) %. Besides, in series [1] (setting [6]), the “% Ratio of LS means (90% CI) … AUC0−t” value is reported as 744.6 (605.3–915.8) %; the “% Ratio of LS means (90% CI) … AUC0−∞” value is reported as 731.5 (595.0–899.3) %; the “% Ratio of LS means (90% CI) … Cmax” value was 259.2 (216.7–310.1) %. In series [1] (deutetrabenazine 22.5 mg, steady-state paroxetine vs alone), the “Increase of half-life (t1/2) in presence of paroxetine” value turned out to be 2.7 fold. Further, in series [1] (human, in vivo), the Cmax is recorded as 20.4 (33) ng/mL. Besides, in series [1] (human, in vivo, im), the “AUC0–∞” value is 333 (75) ng × h/mL, the Cmax is reported as 32.6 (22) ng/mL, the Tmax was 4.0 (2.0–8.0) h and the t1/2 was 7.9 (50) h. The Cmax in series [1] (human, in vivo, po, 22.5 mg) is reported as 24.6 (38) ng/mL. For the same compound, in series [1] (setting [7]), the “Increase of AUC0–∞ in presence of paroxetine” value was 5.6 fold and the “Increase of Cmax in presence of paroxetine” value was 2.1 fold. Besides, in series [3] (after tetrabenazine administration), the “Increase in exposure with paroxetine” value is given as “ninefold”. Further, the “Increase of AUC with paroxetine” value in series [3] (paroxetine administered with tetrabenazine) is given as “ninefold”.

Regarding `[2H]C([2H])([2H])Oc1cc2c(cc1OC([2H])([2H])[2H])C1CC(=O)C(CC(C)C)CN1CC2` (stereo not shown) [Deutetrabenazine], the “Mean plasma concentrations in the presence and absence of paroxetine” value in series [1] (deutetrabenazine 22.5 mg oral, day 11 vs day 1) was “comparable”. Further, in series [1] (human, in vivo), the Cmax was 0.3 (44) ng/mL and the Tmax is 3.5 (1.0–6.0) h. Further, in series [1] (human, in vivo, im), the AUC0-t was 1.0 (55) ng × h/mL, the Cmax was 0.5 (66) ng/mL and the Tmax was 3.5 (1.0–6.0) h. Further, the Cmax in series [1] (human, in vivo, po, 22.5 mg) is 0.4 (60) ng/mL. In addition, in series [2] (setting [4]), the Back pain is on record as 0 (0%) n (%), the Chest discomfort is reported as 0 (0%) n (%), the Decreased appetite is recorded as 0 (0%) n (%) and the Dizziness is 1 (4%) n (%). In addition, in series [2] (setting [4]), the Feeling abnormal is on record as 0 (0%) n (%); the Feeling hot was 0 (0%) n (%); the “Gastrointestinal Disorders” value is reported as 0 (0%) n (%); the “General Disorders and Administration Site Conditions” value is on record as 0 (0%) n (%). Besides, in series [2] (setting [4]), the Gingival pain was 0 (0%) n (%), the Headache was 0 (0%) n (%), the Hypoaethesia oral was 0 (%) n (%) and the Local swelling is reported as 0 (0%) n (%). In series [2] (setting [4]), the “Metabolism and Nutritional disorders” value is 0 (0%) n (%); the Muscle tightness is 0 (0%) n (%); the “Musculoskeletal and Connective Tissue Disorders” value is listed as 0 (0%) n (%); the Nausea is given as 0 (0%) n (%). In series [2] (setting [4]), the “Nervous System Disorders” value is listed as 1 (4%) n (%), the Paraesthesia oral was 0 (0%) n (%), the “Sensation of foreign body” value was 0 (0%) n (%) and the Sensation of heaviness is listed as 0 (0%) n (%). Further, in series [2] (setting [4]), the Swollen tongue was 0 (0%) n (%) and the Vomiting is 0 (0%) n (%). Moreover, the “Subjects with AEs, n (%)” value in series [2] (by treatment period, 24 subjects dosed) is reported as 3 (13%) n (%). Besides, in series [2] (in vivo), the “Infections and Infestations” value is 0 (0%) n (%); the “Viral Infections” value is on record as 0 (0%) n (%). Moreover, the Safety and tolerability result in series [2] (single doses of 22.5 mg, alone or in the presence of steady-state paroxetine (20 mg daily), healthy subjects) is “safe and generally well tolerated”.
